Measured values: ChEMBL document CHEMBL4417636, “Small molecule inhibitors of pendrin ion exchange and pharmaceutical compositions” (2017)
Active and inactive are the calls of the source. The rule behind the calls is not given here.

How the values were obtained:
Pendrin (Homo sapiens) [1] = target: T1, Pendrin (Homo sapiens) (UniProt O43511); experiment: Inhibition of human pendrin expressed in FRT cells co-expressing EYFP-HIF assessed as reduction in pendrin-mediated anion exchange at 25 uM incubated for 10 mins by pH-sensitive fluorescent probe BCECF-AM based fluorescence assay relative to control; type: cell-based
T1 sequence (whole entry): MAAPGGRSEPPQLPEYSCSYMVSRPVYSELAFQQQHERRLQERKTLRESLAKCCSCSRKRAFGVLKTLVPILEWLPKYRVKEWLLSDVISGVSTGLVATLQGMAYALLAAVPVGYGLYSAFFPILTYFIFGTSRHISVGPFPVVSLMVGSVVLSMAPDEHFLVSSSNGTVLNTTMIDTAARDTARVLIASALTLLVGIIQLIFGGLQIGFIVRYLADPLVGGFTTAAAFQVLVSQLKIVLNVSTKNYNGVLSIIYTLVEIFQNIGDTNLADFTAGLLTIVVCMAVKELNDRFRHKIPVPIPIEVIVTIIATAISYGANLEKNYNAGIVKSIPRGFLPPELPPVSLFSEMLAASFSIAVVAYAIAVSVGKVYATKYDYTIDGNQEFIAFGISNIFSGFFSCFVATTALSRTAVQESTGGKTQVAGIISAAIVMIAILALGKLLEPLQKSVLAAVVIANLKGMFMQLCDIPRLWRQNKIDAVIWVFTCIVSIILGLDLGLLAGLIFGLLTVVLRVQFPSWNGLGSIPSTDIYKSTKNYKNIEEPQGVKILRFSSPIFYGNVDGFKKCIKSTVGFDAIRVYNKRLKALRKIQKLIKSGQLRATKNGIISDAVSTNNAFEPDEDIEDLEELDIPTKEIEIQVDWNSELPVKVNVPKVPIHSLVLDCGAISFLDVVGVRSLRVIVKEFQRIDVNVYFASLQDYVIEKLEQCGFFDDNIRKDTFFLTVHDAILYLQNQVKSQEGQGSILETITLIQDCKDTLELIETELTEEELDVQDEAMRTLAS

Pendrin (Homo sapiens) [2] = target: T1, Pendrin (Homo sapiens); experiment: Inhibition of human pendrin expressed in FRT cells co-expressing EYFP-HIF assessed as reduction in pendrin-mediated anion exchange at 100 uM incubated for 10 mins by pH-sensitive fluorescent probe BCECF-AM based fluorescence assay relative to control; type: cell-based

inhibition (Pendrin (Homo sapiens) [1]) | inhibition (Pendrin (Homo sapiens) [2]) | Structure (SMILES)
60% |  | Cn1nc(COc2ccc(F)cc2)c2c1CCN(C(=O)Nc1cccc(Cl)c1)C2
inactive |  | NS(=O)(=O)c1cc(C(=O)O)c(NCc2ccco2)cc1Cl
 | < 40% | O=C(O)c1cccnc1Nc1cccc(C(F)(F)F)c1
